Assay results: patent US7341859B2, “ADH from Rhodococcus erythropolis” (Degussa AG, priority 2002, dated 2008)
Where two headings read alike, the source gives them in different places. Each block holds one molecule with its values, some of them ahead of it.

Tests used:
[1] = tested on: alcohol dehydrogenase from R. erythropolis (RE-ADH, new ADH expr. in E. coli); experiment: Relative/specific activity of substrates with the new ADH from R. erythropolis (photometric NADH test); assay type: biochemical, Rhodococcus erythropolis; settings: for Relative activity [%]: relative to acetophenone = 100
Method: In this case, as is normal, the measured activity for one compound is set at 100% and the activity/activities of the other compound(s) is determined in relation thereto. From the relative activities when compared with other substrates, it can then be recognised whether such another substrate is accepted to a greater or lesser extent.
A first purification can be achieved by anion exchange chromatography (MonoQ-Material, Pharmacia) (mobile buffer: 50 mM TEA buffer, pH 7.0; elution with a NaCl gradient of 0-1 M).
For the activity test, the cells were harvested (15 min centrifuging at 14000 rpm, 4° C.) and degraded after resuspension with 100 mM KPi buffer, pH 6.0 (1.5 ml of buffer per 1 g of cells). For the purposes of degradation, the suspension was treated with ultrasound (2×30 sec. power 100%, pulse 50), then the cell broth was centrifuged. The supernatant liquid is the soluble crude extract, the sediment is the insoluble fraction.
For a comparison using relative activities, the activity of the two enzymes was given with respect to phenylacetaldehyde=100%.
In this case, the relative activity is given with respect to the activity measured for acetophenone.

[2] = tested on: aldehyde reductase from Corynebacterium sp.; settings: cited from earlier work; for relative activity: phenylacetaldehyde = 100%
[3] = tested on: alcohol dehydrogenase from R. erythropolis; experiment: Preparative reduction of keto-compounds with ADH and formate dehydrogenase regeneration, chiral GC; assay type: biochemical, Rhodococcus erythropolis; settings: for Conversion after 10 min [%]: 10 mM keto-compound, 0.5 U/ml alcohol dehydrogenase; for ee [%] of the product: enzymatic reduction, chiral GC
Method: The product is analysed by means of gas chromatography, wherein the stationary phase in the GC column is capable of separating enantiomeric alcohols so that information on the ee values of the enzymatically prepared product can be obtained.
Such a mixture for reduction contains: • 10 mM keto-compound • 0.5 mM NAD • 100 mM Na formate • 1 U/ml formate dehydrogenase
At the times 0, 5 min and 10 min, samples are taken (100 μl), extracted with 100 μl of chloroform and the chloroform phase is analysed using gas chromatography.
Column: CP-Chirasil-DEX CB length: 25 m, diameter: 25 μm (Chrompack). Temperature programme: 5 min at 60° C., then 5° C./min up to 190° C. (for hexanone/hexanol: 30 min at 60° C., then 10° C./min to 195° C.). Column flow 1.3 ml/min; gas:helium
p-Cl-acetophenone, acetophenone, ethyl 2-oxobutyrate, 2-hexanone and 2-heptanone.

CC(=O)c1ccc(Cl)cc1 = experiment: purified protein, by the assay type; settings: other: reduction reaction
C[C@H](O)c1ccc(Cl)cc1 = experiment: purified protein, by the assay type; settings: other: oxidation reaction
[4] = tested on: ADH in accordance with J. Peters, Dissertation; settings: cited from earlier work
ADH from R. erythropolis = experiment: Enantioselective oxidation of (R,S)-phenylethanol with ADH and NADH oxidase, chiral GC; assay type: biochemical, Rhodococcus erythropolis; settings: after 2 h; for oxidation of the enantiomer: 10 mM (R,S)-phenylethanol
Method: By means of enantioselective oxidation of an alcohol, an enantiomer-enriched or enantiomer-pure alcohol, for example, can be obtained from a racemate.
Samples were taken after 0, 1 and 2 h and separated by gas chromatography (column: CP-Chirasil-DEX CB length: 25 m, diameter: 25 μm (Chrompack). Temperature programme: 5 min at 60° C., then 5° C./min up to 190° C.; column flow rate 1.3 ml/min; gas: helium. In this case, both the acetophenone peak (product; retention time=16.9 min), and also the enantiomers of phenylethanol (reactants; retention times R-phenylethanol=20.8 min and S-phenylethanol=21.1 min) were recorded.

[5] = tested on: ADH in accordance with DE 4209022; settings: cited from earlier work
[6] = tested on: whole cells of R. erythropolis; experiment: Continuous conversion with alginate-immobilised whole cells in a column; assay type: cell-based, Rhodococcus erythropolis; settings: 1.5 mM, 2 ml per h
Method: Our results with whole cells of R. erythropolis indicate that this strain contains several ADHs, including at least one with opposite enantioselectivity. […] However, this high ee value is retained for only about 10 h (about 3 volume changes), then the ee value drops drastically while the conversion remains at the same high level.

[7] = substrate: NC(=O)c1ccc[n+]([C@@H]2O[C@H](COP(=O)([O-])OP(=O)(O)OC[C@H]3O[C@@H](n4cnc5c(N)ncnc54)[C@H](O)[C@@H]3O)[C@@H](O)[C@H]2O)c1; experiment: purified protein, by the assay type; settings: other: oxidation reaction
[8] = relative to 2-heptanone = 100%, listed as 2-decanone
[9] = relative to 2-heptanone = 100%, listed as drawing 11
[10] = relative to p-methylacetophenone = 100%
[11] = relative to methyl acetoacetate = 100%
[12] = relative to 2-heptanone = 100%, listed as drawing 12
[13] = relative to 2-heptanone = 100%, listed as phenoxyacetone
[14] = relative to p-fluoroacetophenone = 100%, listed as drawing 5
[15] = relative to p-fluoroacetophenone = 100%, listed as p-methoxyacetophenone
[16] = relative to 2-heptanone = 100%, listed as 2-heptanone
[17] = relative to 2-heptanone = 100%, listed as drawing 10
[18] = relative to methyl acetoacetate = 100%, listed as drawing 9
[19] = relative to methyl acetoacetate = 100%, listed as p-chloroacetophenone
[20] = relative to p-methylacetophenone = 100%, listed as drawing 3
[21] = relative to p-methylacetophenone = 100%, listed as p-chloroacetophenone

Molecule: CC(=O)c1ccccc1 [Acetophenone]
activity of Rhodococcus ADH compared with the Corynebacterium enzyme ([1]; highly purified enzymes, towards acetophenone): about 15 times
activity for acetophenone reduction ([1]; homogeneous enzyme): 348 U/mg
relative activity ([1]; phenylacetaldehyde = 100%): 87%
Relative activity [%] [1]: 100%
activity for acetophenone reduction ([2]; homogeneous enzyme): 22.4 U/mg
relative activity [2]: 35%
Conversion after 10 min [%] [3]: >95%
ee [%] of the product [3]: >99%

Molecule: RE-ADH (Rhodococcus erythropolis)
Km (CC(=O)c1ccc(Cl)cc1): 500 µM
Km (C[C@H](O)c1ccc(Cl)cc1): 280 µM

Molecule: CCCCCCCCC(C)=O [Decan-2-one, 2-decanone]
relative activity [4, 8]: 79%
relative activity [4, 9]: 79%
relative activity [1, 8]: 76%
relative activity [1, 9]: 76%
Relative activity [%] [1]: 2521%

Molecule: C[C@H](O)c1ccccc1 [(S)-phenylethanol]
oxidation of the enantiomer (ADH from R. erythropolis): fully oxidised

Molecule: CC(=O)c1ccc(C)cc1 [p-methyl-acetophenone, p-methylacetophenone]
relative activity [5, 10]: 100%
Relative activity [%] [1]: 640%
relative activity [1, 10]: 100%

Molecule: CCOC(=O)CC(C)=O [Ethyl acetoacetate]
relative activity [4, 11]: 250%
relative activity ([4]; relative to methyl acetoacetate = 100%, listed as β-ketoethyl esters): 250%
Relative activity [%] [1]: 1020%
relative activity [1, 11]: 773%
relative activity ([1]; relative to methyl acetoacetate = 100%, listed as β-ketoethyl ester): 773%

Molecule: CC(=O)c1cccc(Cl)c1 [m-Cl-acetophenone]
Relative activity [%] [1]: 2384%

Molecule: CC(=O)c1ccc(F)cc1 [p-F-acetophenone, p-fluoroacetophenone]
relative activity ([5]; relative to p-fluoroacetophenone = 100%, listed as drawing 6): 100%
relative activity ([5]; relative to p-fluoroacetophenone = 100%, listed as p-fluoroacetophenone): 100%
Relative activity [%] [1]: 194%
relative activity ([1]; relative to p-fluoroacetophenone = 100%): 100%

Molecule: CC(=O)COc1ccccc1 [Phenoxyacetone, phenoxyacetone]
relative activity [4, 12]: 71%
relative activity [4, 13]: 71%
relative activity [1, 12]: 126%
relative activity [1, 13]: 126%
Relative activity [%] [1]: 4180%

Molecule: COc1ccc(C(C)=O)cc1 [p-methoxy-acetophenone, p-methoxyacetophenone]
relative activity [5, 14]: 90%
relative activity [5, 15]: 90%
Relative activity [%] [1]: 232%
relative activity [1, 14]: 195%
relative activity [1, 15]: 195%

Molecule: CCCCC=O [Valeraldehyde]
relative activity ([1]; phenylacetaldehyde = 100%): 433%
relative activity [2]: 181%

Molecule: COC(=O)CC(C)=O [Methyl acetoacetate, methyl acetoacetate]
relative activity [4, 11]: 100%
Relative activity [%] [1]: 134%
relative activity [1, 11]: 100%
relative activity ([1]; relative to methyl acetoacetate = 100%, listed as methyl ester): 100%

Molecule: O=CCc1ccccc1 [Phenylacetaldehyde]
relative activity ([1]; phenylacetaldehyde = 100%): 100%
relative activity [2]: 100%

Conversion after 10 min [%] [3]: >95%
ee [%] of the product [3]: >99%
Molecule: CCCCCC(C)=O [Heptan-2-one, 2-heptanone]
relative activity [4, 16]: 100%
relative activity [4, 17]: 100%
relative activity [1, 16]: 100%
relative activity [1, 17]: 100%
Relative activity [%] [1]: 3328%

Molecule: C[C@@H](O)c1ccccc1 [(R)-phenylethanol]
ee value of the remaining enantiomer (ADH from R. erythropolis): > 99%
oxidation of the enantiomer (ADH from R. erythropolis): remained untouched

Molecule: CCCCC(C)=O [2-hexanone]
Conversion after 10 min [%] [3]: >95%
ee [%] of the product [3]: >99%

Conversion after 10 min [%] [3]: >95%
ee [%] of the product [3]: >99%
Molecule: CCOC(=O)C(=O)CC [Ethyl 2-oxobutyrate, ethyl 2-oxobutyrate]

Molecule: CC(=O)c1ccc(Cl)cc1 [p-Cl-acetophenone, p-chloroacetophenone]
relative activity [4, 18]: 100%
relative activity [4, 19]: 100%
relative activity [5, 20]: 81%
relative activity [5, 21]: 81%
relative activity ([1]; phenylacetaldehyde = 100%): 288%
Relative activity [%] [1]: 1198%
relative activity [1, 18]: 909%
relative activity [1, 19]: 909%
relative activity [1, 20]: 189%
relative activity [1, 21]: 189%
relative activity [2]: 338%
Conversion after 10 min [%] [3]: >95%
enantiomeric form of the product of conversion by the new alcohol dehydrogenase ([3]; also when used several times or at higher concentrations): enantiomerically pure
ee [%] of the product [3]: >99%
ee of (S)-p-chloro-2-phenylethanol obtained ([6]; after 25 h (about 9 volume changes)): 70 % ee
ee of the alcohol obtained ([6]; after 50 h (about 18 volume changes)): about 5 % ee

B1: RE-ADH (Rhodococcus erythropolis) (protein)
chain: MKAIQYTRIGAEPELTEIPKPEPGPGEVLLEVTAAGVCHSDDFIMSLPEEQYTYGLPLTLGHEGAGKVAAVGEGVEGLDIGTNVVVYGPWGCGNCWHCSQGLENYCSRAQELGINPPGLGAPGALAEFMIVDSPRHLVPIGDLDPVKTVPLTDAGLTPYHAIKRSLPKLRGGSYAVVIGTGGLGHVAIQLLRHLSAATVIALDVSADKLELATKVGAHEVVLSDKDAAENVRKITGSQGAALVLDFVGYQPTIDTAMAVAGVGSDVTIVGIGDGQAHAKVGFFQSPYEASVTVPYWGARNELIELIDLAHAGIFDIAVETFSLDNGAEAYRRLAAGTLSGRAVVVPGL
Km [7]: 82 µM
